# Measurements reported in paper PMC10608315, “Organic Synthesis of New Secosteroids from Fucosterol, Its Intestinal Absorption by Caco-2 Cells, and Simulation of the Biological Activities of Vitamin D” (Marine Drugs, 2023).
# Read-outs that look alike come from different tables or passages of the source.
# Tests used:
# [1] = set-up: method as in PMID 9598513, PMID 10389917; conditions: potential cancer therapy; cited from earlier work
# human breast cancer cell = system: human breast cancer cell; set-up: method as in PMID 10762752; conditions: compared with 1,25-di(OH)-vitamin D3; cited from earlier work
# [2] = system: chemically induced cancers; conditions: cited from earlier work
# [3] = set-up: method as in PMID 12628523; conditions: cited from earlier work
# Caco-2 cells [4] = conditions: human, Caco-2, 24 h, 1 µM
# Caco-2 cells [5] = assay: Intestinal absorption of mixed micellar secosteroid by differentiated Caco-2 monolayers in Transwell plates (remaining, uptake, transport); conditions: summary of Caco-2 uptake and transport, 24 h
# rickets = conditions: rats; cited from earlier work
# Caco-2 = system: Caco-2; set-up: method as in PMID 9184144; conditions: cholesterol versus sitosterol; cited from earlier work
smiles,measurement,setting,value
"C=C1C(=CC=C2CCCC3(C)C2CCC3C(C)CCCC(C)(C)O)CC(O)CC1O (stereo not shown) [1,25-di(OH)-Vitamin D3]",Side effects in clinical trials,[1],side effects like hypercalcemia [75] and hypercalciuria
C=C1/C(=C\C=C2/CCC[C@]3(C)[C@@H]([C@H](C)CC[C@@H](CC)C(C)C)CC[C@@H]23)C[C@@H](O)C[C@@H]1O [1-OH-vitamin D5],Inhibition of human breast cancer cell growth,human breast cancer cell,"as effective as 1,25-di(OH)-vitamin D3"
same,"Effectiveness compared with 1,25-di(OH)-vitamin D3",[2],"less effective than 1,25-di(OH)-vitamin D3"
same,Treatment of chemically induced cancers,[2]; mice and rats,effectively treated
same,Side effects like weight loss and disruptions to calcium levels,[3],markedly fewer side effects
"C=C1CCC(O)CC1=CC=C1CCCC2(C)C1CCC2C(C)CCC(=CC)C(C)C [Compound 3, (5Z,7E,24E)-(3S)-9,10-seco-5,7,10(19),24(24^1)-stigmastatetraen-3-ol]",Concentration of micellar secosteroid remaining on the apical side,Caco-2 cells [4],significantly higher concentrations than vitamin D3
same,Intestinal absorption (uptake and transport) ranking,Caco-2 cells [4],compound 4 ≥ vitamin D3 ≥ compound 3
"C=C(C)C(=CC)CCC(C)C1CCC2C(=CC=C3CC(O)CCC3=C)CCCC21C [Compound 4, (5Z,7E,24E)-(3S)-9,10-seco-5,7,10(19),24(24^1),25(27)-stigmastapentaen-3-ol]",Concentration of micellar secosteroid remaining on the apical side,Caco-2 cells [4],significantly higher concentrations than vitamin D3
same,Intestinal absorption (uptake and transport) ranking,Caco-2 cells [4],compound 4 ≥ vitamin D3 ≥ compound 3
same,Secosteroid transported from the monolayer into the basolateral medium,Caco-2 cells [4],No significant deviation was observed between vitamin D3 and compound 4
"C=C1CC[C@H](O)C/C1=C/C=C1\CCC[C@]2(C)[C@@H]([C@H](C)CCCC(C)C)CC[C@@H]12 [Vitamin D3, cholecalciferol]",Intestinal absorption (uptake and transport) ranking,Caco-2 cells [5],compound 4 ≥ vitamin D3 ≥ compound 3
C=C1CCC(O)C/C1=C/C=C1\CCCC2(C)C1CCC2C(C)CCC(CC)C(C)C (stereo not shown) [Vitamin D5],Anti-rickets activity,rickets,very low anti-rickets activity
CC(C)CCC[C@@H](C)[C@H]1CC[C@H]2[C@@H]3CC=C4C[C@@H](O)CC[C@]4(C)[C@H]3CC[C@]12C [cholesterol],Uptake and transport by Caco-2,Caco-2,higher for cholesterol than for sitosterol
